Patent US11834463B2, “High affinity macrocyclic FKB51-inhibitors for treatment of psychiatric disorders” (priority 2020, dated 2023)
“And” between values parts separate entries of the source, which are not always exact repeats. Equal entries are not always repeated. Where two headings read alike, the source gives them in different places.

Columns and labels:
[1] = not given; remark: listed apart in the source
FKBP51FK1 = target: T1, FKBP51FK1 (Homo sapiens, UniProt Q13451); experiment: biochemical
T1 sequence (Q13451 42-130 limits assumed): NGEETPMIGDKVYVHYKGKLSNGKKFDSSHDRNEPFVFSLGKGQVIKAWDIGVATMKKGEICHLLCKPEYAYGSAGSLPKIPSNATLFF
Description: (§1) All macrocyclic compounds were tested in a competitive fluorescence polarization assay for binding towards FKBP51 as well as the homologs FKBP12, FKBP12.6 and FKBP52 (Table 1).
(§2) Example 8: […] of the Macrocyclic FKBP51 Ligands by SPPS

FKBP12 = FKBP12 (Homo sapiens, UniProt P62942); experiment: competitive fluorescence polarization assay, binding to FKBP12
Description: as §1, §2

FKBP12.6 = FKBP12.6 (Homo sapiens, UniProt P68106); experiment: competitive fluorescence polarization assay, binding to FKBP12.6
Description: as §1, §2

[2] = Table 1, competitive Fluorescence Polarization Assay, read-out: Ki [nM] FKBP12
[3] = Ki [nM] FKBP51FK1, Table 1, competitive Fluorescence Polarization Assay
[4] = Table 1, competitive Fluorescence Polarization Assay, read-out: Ki [nM] FKBP12.6

Chain of FKBP12.6 (P68106 whole entry): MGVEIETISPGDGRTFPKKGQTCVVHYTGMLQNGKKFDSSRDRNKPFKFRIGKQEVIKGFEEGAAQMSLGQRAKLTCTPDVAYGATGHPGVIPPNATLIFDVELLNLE
Chain of FKBP12 (P62942 whole entry): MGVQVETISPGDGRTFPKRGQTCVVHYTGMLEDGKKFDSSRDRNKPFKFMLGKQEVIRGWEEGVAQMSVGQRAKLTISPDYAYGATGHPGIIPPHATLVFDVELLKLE

Row | Compound | Ki (FKBP12; [2]) [nM] | Ki (FKBP51FK1; [3]) [µM] | Ki (FKBP12.6; [4]) [nM] | also measured
1 | COc1ccc(CC[C@@H]2OC(=O)[C@H]3CCCCN3C(=O)[C@@H](C3CCCCC3)c3cc(OC)c(OC)c(c3)OCCOc3cccc2c3)cc1OC | – | – | – | ring closure, yield after HPLC (from COc1ccc(CC[C@H](OC(=O)[C@H]2CCCCN2C(=O)[C@H](c2cc(OC)c(OC)c(OCCI)c2)C2CCCCC2)c2cccc(O)c2)cc1OC, ether bond, 17-membered ring, K2CO3 (2 equiv), MeCN, 1.0 mM): 42%
2 | COc1ccc(CC[C@H]2OC(=O)[C@@H]3CCCCN3C(=O)[C@@H](C3CCCCC3)NC(=O)C(C)(C)NC(=O)COc3cc(O)cc2c3)cc1OC [Compound 103, (2R,5S,12R)-12-cyclohexyl-2-[2-(3,4-dimethoxyphenyl)ethyl]-22-hydroxy-15,15-dimethyl-3,19-dioxa-10,13,16-triazatricyclo[18.3.1.0^5,10]tetracosa-1(24),20,22-triene-4,11,14,17-tetrone] | – | – | – | ring closure, isolated yield ([1]; from H-Aib-dChg-Pip-[O-(R)-CH(CH2CH2-3,4-dimethoxyphenyl)-C6H3(O-resin)-OCH2CO]-OH?, amide bond, 17-membered ring, resin, with chain assembly): 20%; affinity (in words) (FKBP51FK1): bound similarly to the glycine derivative 83; Ki (FKBP51FK1; FKBP51FK1 Ki [μM], Table 2, [a] standard error from three, [c] error from two independent measurements): 0.37 µM
3 | COc1ccc(CC[C@@H]2OC(=O)[C@H]3CCCCN3C(=O)[C@@H](C3CCCCC3)c3cc(OC)c(c(OC)c3)OCCCOc3cccc2c3)cc1OC | – | – | – | ring closure, isolated yield ([1]; from COc1ccc(CC[C@H](OC(=O)[C@H]2CCCCN2C(=O)[C@H](c2cc(OC)c(OCCCI)c(OC)c2)C2CCCCC2)c2cccc(O)c2)cc1OC, ether bond, 19-membered ring, K2CO3 (2 equiv), MeCN, 0.5 mM): 81%
4 | COc1ccc(CC[C@@H]2OC(=O)[C@H]3CCCCN3C(=O)[C@@H](C3CCCCC3)c3cc(OC)c(OC)c(c3)OCCCOc3cccc2c3)cc1OC | – | – | – | ring closure, yield after HPLC (from COc1ccc(CC[C@H](OC(=O)[C@H]2CCCCN2C(=O)[C@H](c2cc(OC)c(OC)c(OCCCI)c2)C2CCCCC2)c2cccc(O)c2)cc1OC, ether bond, 18-membered ring, K2CO3 (2 equiv), MeCN, 0.3 mM): 26%
5 | COc1ccc(CC[C@@H]2OC(=O)[C@H]3CCCCN3C(=O)[C@@H](C3CCCCC3)c3cc(OC)c(OC)c(c3)OCCCOCC=CCOc3cccc2c3)cc1OC | – | – | – | ring closure, yield after HPLC (from C=CCOCCCOc1cc([C@@H](C(=O)N2CCCC[C@@H]2C(=O)O[C@@H](CCc2ccc(OC)c(OC)c2)c2cccc(OCC=C)c2)C2CCCCC2)cc(OC)c1OC, rcm bond, 23-membered ring, Grubbs II (0.1 equiv)/1,4-benzoquinone, DCM, 1.0 mM): 58% and 33%
6 | COc1ccc(CC[C@H]2OC(=O)[C@@H]3CCCCN3C(=O)[C@@H](C3CCCCC3)c3cc(OC)c(OC)c(c3)OCCCC(=O)COc3cccc2c3)cc1OC [Compound 61b] | 58 | 0.028 | 37 | –
7 | COc1ccc(CC[C@H]2OC(=O)[C@@H]3CCCCN3C(=O)[C@@H](C3CCCCC3)NC(=O)C(C)(C)NC(=O)COc3cccc2c3)cc1OC [Compound 85, (2R,5S,12R)-12-cyclohexyl-2-[2-(3,4-dimethoxyphenyl)ethyl]-15,15-dimethyl-3,19-dioxa-10,13,16-triazatricyclo[18.3.1.0^5,10]tetracosa-1(24),20,22-triene-4,11,14,17-tetrone] | – | – | – | Ki (FKBP12; Table 2, read-out: FKBP12 Ki): > 80000 nM; Ki (FKBP51FK1; affinity, same values as Table 2 FKBP51FK1): 0.29 µM; Ki (FKBP12.6; Table 2, read-out: FKBP12.6 Ki): > 80000 nM
8 | COc1ccc(CC[C@H]2OC(=O)[C@@H]3CCCCN3C(=O)[C@@H](C3CCCCC3)c3cc(OC)c(OC)c(c3)OCCOCC(=O)CCOc3cccc2c3)cc1OC [Compound 62] | 39 | 0.023 | 57 | –
9 | COc1ccc(CC[C@H]2OC(=O)[C@@H]3CCCCN3C(=O)[C@@H](C3CCCCC3)c3cc(OC)c(c(OC)c3)OC/C=C/COc3cccc2c3)cc1OC [31-(E)] | 289 | 0.056 | 263 | –
10 | COc1ccc(CC[C@H]2OC(=O)[C@@H]3CCCCN3C(=O)[C@@H](C3CCCCC3)c3cc(OC)c(OC)c(c3)OCCOc3cccc2c3)cc1OC [Compound 57] | 308 | 0.047 | 78 | –
11 | COc1ccc(CC[C@H]2OC(=O)[C@@H]3CCCCN3C(=O)[C@@H](C3CCCCC3)C/C=C/COCCOc3cccc2c3)cc1OC | – | – | – | ring closure, isolated yield ([1]; from C=CCOCCOc1cccc([C@H](CCc2ccc(OC)c(OC)c2)OC(=O)[C@H]2CCCCN2C(=O)[C@H](CC=C)C2CCCCC2)c1, rcm bond, 18-membered ring, Grubbs II (0.1 eq), DCM, 0.5 mM, 30.0 °C, 2.5 h): 92%
